# Target: E. coli RNA polymerase β subunit (wild-type) (Escherichia coli, UniProt P0A8V2)
# Assay: coupled cell-free synthesis of RNAP holoenzyme with firefly luciferase reporter
# Type: biochemical
# E. coli RNA polymerase β subunit (wild-type), sequence (P0A8V2 whole entry): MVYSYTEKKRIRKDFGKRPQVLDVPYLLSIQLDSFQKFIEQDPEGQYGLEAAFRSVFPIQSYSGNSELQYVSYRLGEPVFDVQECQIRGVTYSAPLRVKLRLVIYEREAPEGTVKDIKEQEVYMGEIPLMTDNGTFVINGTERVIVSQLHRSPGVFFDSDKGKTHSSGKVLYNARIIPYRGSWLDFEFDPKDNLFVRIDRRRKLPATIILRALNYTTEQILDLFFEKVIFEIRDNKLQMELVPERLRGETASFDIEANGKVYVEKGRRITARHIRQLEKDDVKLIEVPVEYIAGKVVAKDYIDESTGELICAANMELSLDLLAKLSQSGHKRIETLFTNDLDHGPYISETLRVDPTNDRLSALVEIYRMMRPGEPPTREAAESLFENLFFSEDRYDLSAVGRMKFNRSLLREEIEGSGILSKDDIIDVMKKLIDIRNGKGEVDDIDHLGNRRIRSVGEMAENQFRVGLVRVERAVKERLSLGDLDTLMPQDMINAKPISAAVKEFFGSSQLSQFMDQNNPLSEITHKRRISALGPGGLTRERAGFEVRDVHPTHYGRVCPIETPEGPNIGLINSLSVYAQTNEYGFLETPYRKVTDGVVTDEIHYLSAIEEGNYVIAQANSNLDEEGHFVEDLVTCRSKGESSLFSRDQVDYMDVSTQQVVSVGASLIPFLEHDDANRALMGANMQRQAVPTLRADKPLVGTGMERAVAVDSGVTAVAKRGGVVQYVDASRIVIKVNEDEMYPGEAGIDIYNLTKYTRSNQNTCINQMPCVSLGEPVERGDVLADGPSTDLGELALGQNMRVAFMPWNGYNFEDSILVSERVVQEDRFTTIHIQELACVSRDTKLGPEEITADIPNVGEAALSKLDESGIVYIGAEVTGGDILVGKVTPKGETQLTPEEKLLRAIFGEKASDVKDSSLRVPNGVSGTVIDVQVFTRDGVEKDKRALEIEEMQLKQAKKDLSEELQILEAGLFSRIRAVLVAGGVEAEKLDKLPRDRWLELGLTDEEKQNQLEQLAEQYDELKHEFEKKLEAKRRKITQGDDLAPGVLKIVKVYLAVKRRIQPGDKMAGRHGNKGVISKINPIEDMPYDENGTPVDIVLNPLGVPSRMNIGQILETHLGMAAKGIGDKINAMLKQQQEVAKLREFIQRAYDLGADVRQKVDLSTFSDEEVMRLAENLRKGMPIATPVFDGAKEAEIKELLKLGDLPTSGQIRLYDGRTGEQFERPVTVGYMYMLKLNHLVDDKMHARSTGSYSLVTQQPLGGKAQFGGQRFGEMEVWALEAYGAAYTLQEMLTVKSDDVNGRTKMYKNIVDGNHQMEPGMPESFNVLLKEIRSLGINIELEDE
# E. coli RNA polymerase β subunit (wild-type), sequence (P0A7Z4 whole entry partner): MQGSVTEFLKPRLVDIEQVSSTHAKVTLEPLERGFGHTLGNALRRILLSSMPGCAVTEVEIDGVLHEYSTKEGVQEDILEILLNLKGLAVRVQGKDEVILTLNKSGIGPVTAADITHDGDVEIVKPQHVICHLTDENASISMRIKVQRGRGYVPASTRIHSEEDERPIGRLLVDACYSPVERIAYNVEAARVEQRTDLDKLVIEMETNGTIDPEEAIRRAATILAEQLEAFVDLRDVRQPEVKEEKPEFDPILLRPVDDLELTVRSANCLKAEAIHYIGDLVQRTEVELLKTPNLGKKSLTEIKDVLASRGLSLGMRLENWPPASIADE
# E. coli RNA polymerase β subunit (wild-type), sequence (P0A8T7 whole entry partner): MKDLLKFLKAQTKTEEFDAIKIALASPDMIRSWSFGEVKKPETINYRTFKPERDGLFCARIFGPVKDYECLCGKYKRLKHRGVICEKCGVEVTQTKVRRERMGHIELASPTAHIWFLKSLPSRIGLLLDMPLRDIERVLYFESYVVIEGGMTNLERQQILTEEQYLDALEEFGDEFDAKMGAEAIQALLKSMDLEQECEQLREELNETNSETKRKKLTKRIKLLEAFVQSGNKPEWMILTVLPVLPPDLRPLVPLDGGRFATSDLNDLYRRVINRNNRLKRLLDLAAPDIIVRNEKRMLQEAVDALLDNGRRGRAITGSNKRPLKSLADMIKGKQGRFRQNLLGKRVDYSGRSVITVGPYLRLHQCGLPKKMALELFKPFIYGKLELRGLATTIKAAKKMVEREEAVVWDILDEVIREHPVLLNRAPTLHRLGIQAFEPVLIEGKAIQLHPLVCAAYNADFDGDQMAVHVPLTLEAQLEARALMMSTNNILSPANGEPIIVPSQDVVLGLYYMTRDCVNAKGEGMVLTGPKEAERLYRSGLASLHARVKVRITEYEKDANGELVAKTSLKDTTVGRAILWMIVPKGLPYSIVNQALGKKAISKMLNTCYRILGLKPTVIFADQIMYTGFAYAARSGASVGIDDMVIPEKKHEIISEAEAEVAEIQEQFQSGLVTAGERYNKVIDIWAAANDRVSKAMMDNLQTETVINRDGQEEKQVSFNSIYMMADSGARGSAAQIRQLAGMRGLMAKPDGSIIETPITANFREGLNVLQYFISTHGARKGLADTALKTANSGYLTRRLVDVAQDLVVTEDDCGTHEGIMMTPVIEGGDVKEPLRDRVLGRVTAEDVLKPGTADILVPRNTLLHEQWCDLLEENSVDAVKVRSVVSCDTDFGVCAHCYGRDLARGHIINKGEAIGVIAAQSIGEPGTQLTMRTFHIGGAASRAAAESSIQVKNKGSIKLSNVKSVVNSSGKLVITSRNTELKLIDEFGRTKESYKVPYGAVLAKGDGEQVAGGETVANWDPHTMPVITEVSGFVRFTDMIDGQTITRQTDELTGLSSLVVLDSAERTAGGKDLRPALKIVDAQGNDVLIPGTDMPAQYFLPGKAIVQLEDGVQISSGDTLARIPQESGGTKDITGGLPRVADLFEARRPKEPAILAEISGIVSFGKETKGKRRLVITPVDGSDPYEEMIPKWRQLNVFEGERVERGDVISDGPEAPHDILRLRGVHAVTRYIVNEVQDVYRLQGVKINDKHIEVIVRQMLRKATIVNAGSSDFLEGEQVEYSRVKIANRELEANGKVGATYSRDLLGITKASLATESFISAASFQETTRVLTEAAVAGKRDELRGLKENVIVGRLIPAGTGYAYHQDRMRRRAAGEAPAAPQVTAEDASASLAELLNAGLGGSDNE
# E. coli RNA polymerase β subunit (wild-type), sequence (P0A800 2-91 partner): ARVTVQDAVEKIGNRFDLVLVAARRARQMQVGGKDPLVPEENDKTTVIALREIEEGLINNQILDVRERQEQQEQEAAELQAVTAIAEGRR
# E. coli RNA polymerase β subunit (wild-type), sequence (P0AGB3 whole entry partner): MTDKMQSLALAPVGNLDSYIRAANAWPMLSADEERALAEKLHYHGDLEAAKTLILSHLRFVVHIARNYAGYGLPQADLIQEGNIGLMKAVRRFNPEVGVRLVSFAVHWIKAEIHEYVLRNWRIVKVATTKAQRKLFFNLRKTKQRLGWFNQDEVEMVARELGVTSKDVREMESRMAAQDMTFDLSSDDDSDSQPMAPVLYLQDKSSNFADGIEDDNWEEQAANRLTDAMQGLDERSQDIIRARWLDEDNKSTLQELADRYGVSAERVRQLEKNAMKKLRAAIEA
compound,measurement,value
CO[C@H]1/C=C/O[C@@]2(C)Oc3c(C)c(O)c4c(O)c(c(/C=N/N5CCN(C)CC5)c(O)c4c3C2=O)NC(=O)/C(C)=C\C=C\[C@H](C)[C@H](O)[C@@H](C)[C@@H](O)[C@@H](C)[C@H](OC(C)=O)[C@@H]1C [rifampicin],IC50,~0.2 µM

# Reference: publication PMC2910072 (Nucleic Acids Research, 2010)
